Consider 27 compounds from PubChem BioAssay (NCI).

Common to all, as to experiment: inhibition of tumour cell growth, NCI panel, 48 h
The subject of test [1] is SNB-19 CNS.
Test [2] deals with UACC-257 melanoma.
Test [3] relates to 786-0 renal.
The subject of test [4] is A549 NSCLC.
Test [5] relates to SN12C renal.
The subject of test [6] is SK-MEL-28 melanoma.
For test [7], the system named is HCC-2998 colon.
In test [8] the test system is ACHN renal.
Test [9] relates to SF-268 CNS.
Test [10] has as its system SK-MEL-2 melanoma.
Test [11] relates to MDA-N.

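Growth conditions: 96-well plates. Treatment: test compound, 48 hours, 5 concentrations. Analysis: linear interpolation between bracketing concentrations; unreached endpoints set to highest concentration. The concentration for 50% growth inhibition is given as GI50. TGI is the concentration that stops growth completely.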

As for `Nc1cc(C2CCCc3c2[nH]c2ccccc32)ccc1O` (stereo unspecified), the TGI in test [1], in test [2], in [3], in [4], in [5] and in test [6] was over 100 µM each time. The TGI in test [7], in test [8], in [9] and in test [10] was over 100 µM each time.
With `COc1cc(/C=C/C(=O)CC(=O)/C=C/c2cc(C)c(O)c(OC)c2)cc(C)c1O`, the TGI in [1], in test [2], in test [3], in test [4], in test [5] and in [6] was over 100 µM each time. Moreover, the TGI in [7], in [8], in test [9] and in [10] was over 100 µM each time.
Turning to `CC1=NNC(=O)C1C1(C(=O)O)CC(c2c[nH]c3ccccc23)=NC(=S)N1` (stereo unspecified), the TGI in test [1], in test [2], in test [3], in test [4], in test [5] and in test [6] was over 100 µM each time. The TGI in [8] is over 100 µM; in [9] it was over 100 µM; in test [11], over 100 µM; in test [10], 81.2 µM.
Regarding `Nc1cc(CO)cc(Nc2c3ccccc3nc3ccccc23)c1`, the TGI in test [2] stood at 28.5 µM; in test [3] it was 30.4 µM; in [4], 38.9 µM; in test [5] it was 35.9 µM; in test [6] it was 32 µM; in test [8], 31.9 µM. Moreover, the TGI is 60 µM in [9], 35.1 µM in test [11] and 30.5 µM in [10].
Consider `CCC(C)C(Nc1c2ccccc2nc2c(C(=O)NCCN(C)C)cccc12)C(=O)O` (stereo unspecified), for which the TGI in test [1] is over 100 µM; in test [3], over 100 µM; in [4], over 100 µM; in test [5], over 100 µM; in [6], 67.1 µM; in test [8] it was over 100 µM. Also, the TGI stood at 39.4 µM in test [9], 86.4 µM in [11] and 46.7 µM in test [10].
In the case of `NCCCn1c(Cl)nc2ccccc21`, the TGI in test [1], in [3], in [4], in [5], in test [6] and in test [7] was over 100 µM throughout. Besides, the TGI in test [8], in test [9], in test [11] and in test [10] was over 100 µM in each case.
Consider `COc1cc(/C=C/c2ccc(OC)c(OC)c2)oc(=O)c1`, for which the TGI in test [1], in [2], in [4], in [5], in test [6] and in [7] was over 250 µM in each case. In addition, the TGI in [9] and in [10] was over 250 µM each time.
Regarding `Cc1cn(S(=O)(=O)c2ccccc2)c2c(OCc3ccccc3)cc([N+](=O)[O-])cc12`, the TGI in [1], in test [2], in [3], in [4], in test [5] and in test [6] was over 100 µM in each case. Moreover, the TGI in test [7], in test [8], in test [9] and in test [10] was over 100 µM each time.
Consider `CCC1(CC)C(=O)NC(=O)NC1=S`, for which the TGI in [1], in [2], in test [3], in [4], in [5] and in test [6] was over 100 µM each time. Moreover, the TGI in test [8], in [9] and in test [10] was over 100 µM throughout.
For the compound `COc1cc2c(cc1OC)C(CCN)=NCC2`, the TGI is over 100 µM in [1]; 32.9 µM in [2]; 18.4 µM in [3]; over 100 µM in test [4]; 35.1 µM in test [5]; 33.2 µM in [6]. The TGI in test [8] stood at 31.7 µM; in test [9], 36.3 µM; in [11], 30.5 µM; in test [10], 31.9 µM.
For the compound `CCC1(O)C(=O)OCc2c1cc1n(c2=O)Cc2cc3cc4c(cc3nc2-1)OCO4` (stereo unspecified), the TGI in test [1] came to 2.17 µM; in [2] it was 0.822 µM; in [3], 0.102 µM; in [4], 0.259 µM; in [5], 4.1 µM; in [6], 18.9 µM. For the same compound, the figures for the TGI in [7], in [9] and in test [10] were 0.396 µM, 0.761 µM and 2.01 µM, respectively.
Turning to `COc1ccc(-c2cc(-c3ccc(C)cc3)n(C3OC(COC(C)=O)C(OC(C)=O)C(OC(C)=O)C3OC(C)=O)c(=S)c2C#N)cc1` (stereo unspecified), the TGI in test [1], in test [3], in test [4], in test [5], in [6] and in [7] was over 100 µM throughout. In addition, the TGI in test [8], in [9] and in test [11] was over 100 µM throughout.
Turning to `O=C1c2c(c3c4cc(F)ccc4oc3c3[nH]c4ccccc4c23)C(=O)N1O`, the GI50 in test [1] is 1.79 µM; in test [2], 2.31 µM; in test [4], 27.1 µM; in [6], 2.89 µM; in [7] it was 2.53 µM; in test [8], 0.398 µM. Moreover, the values for the GI50 in [9] and in [10] were 1.2 µM and 3.06 µM, respectively. The TGI is 24.9 µM in test [1]; 6.68 µM in [2]; over 100 µM in [4]; over 100 µM in [6]; over 100 µM in test [7]; 1.73 µM in [8]. In addition, the TGI is 25.4 µM in test [9] and 12.6 µM in test [10].
In the case of `CC1[C@@]2(O[C@@H]3C=C4C5CCC6Cc7nc8c(nc7C[C@@]6(C)C5C[C@H](O)[C@@]4(C)[C@]13O)CC1CCc3c(cc4c5c3C(O)C[C@H]5[C@@H](C)C3(O4)OC(C)(C)CC3O)[C@]1(C)C8)O[C@@](C)(CO)C[C@@H]2O` (stereo partly specified), the TGI is over 3.72 µM in [1]; over 3.72 µM in test [2]; over 3.72 µM in [4]; over 3.72 µM in [5]; over 3.72 µM in [7]; 2.65 µM in [9]. The same compound displayed a TGI in test [10] of over 3.72 µM.
In the case of `COc1ccc(N2C(=O)C3ON(Cc4ccc(CC(N)=O)cc4)C(c4c5ccccc5c(C)c5ccccc45)C3C2=O)cc1` (stereo unspecified), the TGI in test [1] was over 100 µM; in test [2], 46.5 µM; in [3], over 100 µM; in test [4], over 100 µM; in [5], over 100 µM; in [6], over 100 µM. Also, the TGI was 77.9 µM in test [8], over 100 µM in test [9], over 100 µM in test [11] and 48.7 µM in test [10].
As for `CC(O)C(CO)NC(=O)C1CSSCC(NC(=O)C(N)Cc2ccccc2)C(=O)NC(Cc2ccccc2)C(=O)NC(Cc2c[nH]c3ccccc23)C(=O)NC(CCCCN)C(=O)NC(C(C)O)C(=O)N1` (stereo unspecified), the TGI in [1], in test [2], in test [3], in test [4], in [5] and in [6] was over 100 µM each time. The TGI in [8], in test [9] and in [11] was over 100 µM throughout.
For `COc1ccc(C2CC(c3sc(Nc4ccc(C)cc4)nc3C)=NN2)cc1` (stereo unspecified), the TGI in test [1] turned out to be 33.8 µM; in test [2] it was 32.6 µM; in test [4], 33 µM; in test [5], 28.9 µM; in test [6], 33.6 µM; in test [7] it was 30.1 µM. In addition, the TGI in [9] turned out to be 37.4 µM; in [10] it was 30.7 µM.
Turning to `O=c1cc(NNc2ccccc2)[nH]c(=O)[nH]1`, the TGI in test [1] was 35.5 µM; in [2] it was 31.7 µM; in test [3], 29.6 µM; in [4] it was over 100 µM; in test [5] it was 49.4 µM; in [6] it was 23.2 µM. Besides, the TGI in test [7] worked out at 39.9 µM; in test [8], 26.1 µM; in [9], 99.6 µM; in test [11], 35.1 µM.
Take `O=C(Nc1ccccc1C(=O)NCc1ccccc1)/C(=C/c1ccccc1O)NC(=O)c1ccccc1`: the TGI in test [1], in test [2], in test [3], in test [4], in test [5] and in test [6] was over 100 µM throughout. The TGI in [7], in test [8], in [9] and in test [10] was over 100 µM throughout.
For `CN(C)CCNC(=O)c1cccc2c1C(=O)c1ccccc1C2=O`, the TGI in test [1] is over 100 µM; in test [2], 54.4 µM; in [4], over 100 µM; in [5] it was over 100 µM; in test [6], over 100 µM; in [7], over 91.6 µM. Further, the TGI in test [9] was over 100 µM; in test [10] it was over 90.5 µM.
As to `CN(C)N1C(=O)C(=O)N(c2cccc3ccccc23)C1=O`, the TGI in [1], in test [4], in test [5], in test [6], in test [7] and in [8] was over 10 µM in each case. Moreover, the TGI in test [9], in [11] and in test [10] was over 10 µM throughout.
Consider `Nc1nnc(N)n1N`, for which the TGI in test [1], in test [2], in test [3], in test [4], in [6] and in [7] was over 100 µM throughout. In addition, the TGI in test [8], in test [9] and in test [10] was over 100 µM each time.
With `CC(C)CC1c2[nH]c3ccccc3c2C[C@H]2C(=O)NC(Cc3c[nH]c4ccccc34)C(=O)N12` (stereo partly specified), the TGI in [1] is 43.6 µM; in [2], 28.9 µM; in test [3] it was 40.2 µM; in [4] it was 71 µM; in test [5], 31.1 µM; in test [6], 40.5 µM. Also, the values for the TGI in test [8], in test [9] and in test [10] were 60 µM, 56.3 µM and 32.9 µM, respectively.
With `O=[N+]([O-])c1ccc(C[P+]2(c3ccccc3)CCCCC2)cc1` (tested in a mixture with another compound), the TGI in test [1], in test [2], in [3], in test [4], in [5] and in [6] was over 100 µM each time. Further, the TGI in [7], in test [8], in [9] and in test [10] was over 100 µM each time.
Take `O=C1CCCC2=C1CC1=C(CCCC1=O)N2c1ccc(Cl)cc1`: the TGI in test [1], in test [2], in [3], in test [4], in test [5] and in test [6] was over 100 µM throughout. Besides, the TGI in test [7], in test [8], in test [9] and in [11] was over 100 µM throughout.
With `O=C(CC(C(=O)c1ccsc1)c1cccs1)c1ccccc1` (stereo unspecified), the TGI in test [2] was over 100 µM; in [3], over 100 µM; in test [4], 54.8 µM; in test [5], over 100 µM; in [6], over 100 µM; in test [7], over 100 µM. Further, the TGI in test [8], in test [9] and in test [11] was over 100 µM each time.
Take `Cc1cc2ncn(CC(=O)O)c2cc1C`: the TGI in [1], in [2], in test [3], in [4], in [5] and in test [6] was over 100 µM throughout. In addition, the TGI in test [8], in test [9] and in test [10] was over 100 µM in each case.
